“And” between values parts separate entries of the source, which are not always exact repeats. Equal entries are not always repeated. Toxic doses and inconclusive results are not listed.
System: L1210 leukemia ip in BDF1 mice, survival T/C
Experiment: NCI In Vivo Anticancer Drug Screen. Data for tumor model L1210 Leukemia (intraperitoneal) in B6D2F1 (BDF1) mice
Conditions: endpoint: mean survival time, higher = longer survival
Method in brief: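 Each compound was tested against a transplantable tumor grown in mice. The endpoint was survival, with treated animals benchmarked against vehicle controls as a simple ratio.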

[1] = dose: 100.0 mg/kg/injection, schedule: Q04DX002 (ip), vehicle: Klucel (hydroxypropylcellulose) (HPC)
[2] = dose: 200.0 mg/kg/injection, schedule: Q04DX002 (ip), vehicle: Klucel (hydroxypropylcellulose) (HPC)
[3] = dose: 100.0 mg/kg/injection, schedule: Q01DX001 (ip), vehicle: carboxymethylcellulose (CMC)
[4] = dose: 200.0 mg/kg/injection, schedule: Q01DX001 (ip), vehicle: carboxymethylcellulose (CMC)
[5] = dose: 400.0 mg/kg/injection, schedule: Q01DX001 (ip), vehicle: carboxymethylcellulose (CMC)
[6] = dose: 100.0 mg/kg/injection, schedule: Q01DX009 (ip), vehicle: Klucel (hydroxypropylcellulose) (HPC)
[7] = dose: 200.0 mg/kg/injection, schedule: Q01DX009 (ip), vehicle: Klucel (hydroxypropylcellulose) (HPC)
[8] = dose: 400.0 mg/kg/injection, schedule: Q01DX009 (ip), vehicle: Klucel (hydroxypropylcellulose) (HPC)
[9] = dose: 25.0 mg/kg/injection, schedule: Q01DX009 (ip), vehicle: saline with Tween-80
[10] = dose: 50.0 mg/kg/injection, schedule: Q01DX009 (ip), vehicle: saline with Tween-80
[11] = dose: 100.0 mg/kg/injection, schedule: Q04DX003 (ip), vehicle: saline with Tween-80
[12] = dose: 100.0 mg/kg/injection, schedule: Q04DX003 (ip), vehicle: Klucel (hydroxypropylcellulose) (HPC)
[13] = dose: 200.0 mg/kg/injection, schedule: Q04DX003 (ip), vehicle: Klucel (hydroxypropylcellulose) (HPC)
[14] = dose: 400.0 mg/kg/injection, schedule: Q04DX003 (ip), vehicle: Klucel (hydroxypropylcellulose) (HPC)
[15] = dose: 25.0 mg/kg/injection, schedule: Q01DX001 (ip), vehicle: saline with Tween-80
[16] = dose: 50.0 mg/kg/injection, schedule: Q01DX001 (ip), vehicle: saline with Tween-80
[17] = dose: 100.0 mg/kg/injection, schedule: Q01DX001 (ip), vehicle: saline with Tween-80
[18] = dose: 200.0 mg/kg/injection, schedule: Q04DX003 (ip), vehicle: saline with Tween-80
[19] = dose: 400.0 mg/kg/injection, schedule: Q04DX003 (ip), vehicle: saline with Tween-80
[20] = dose: 50.0 mg/kg/injection, schedule: Q01DX001 (ip), vehicle: carboxymethylcellulose (CMC)
[21] = dose: 200.0 mg/kg/injection, schedule: Q01DX001 (ip), vehicle: saline with Tween-80
[22] = dose: 400.0 mg/kg/injection, schedule: Q01DX001 (ip), vehicle: saline with Tween-80
[23] = dose: 75.0 mg/kg/injection, schedule: Q01DX001 (ip), vehicle: saline

With `O=C(CCCC(=O)N/N=C/c1c[nH]c2ccc(Br)cc12)N/N=C\c1c[nH]c2ccc(Br)cc12` as the compound, how does the T/C (dose: 50.0 mg/kg/injection, schedule: Q01DX001 (ip), vehicle: saline) read?
Its T/C is 105 % of control.

And the T/C (dose: 100.0 mg/kg/injection, schedule: Q01DX001 (ip), vehicle: saline)?
The T/C was 102 % of control.

And the T/C (dose: 200.0 mg/kg/injection, schedule: Q01DX001 (ip), vehicle: saline)?
The T/C was 107 % of control.

And the T/C (dose: 400.0 mg/kg/injection, schedule: Q01DX001 (ip), vehicle: saline)?
Its T/C is 96 % of control.

With `CCOC(=O)C1C(=O)Nc2c(ccc3ccccc23)N1C(C)=O` (stereo unspecified) as the compound, how does the T/C (dose: 50.0 mg/kg/injection, schedule: Q04DX002 (ip), vehicle: Klucel (hydroxypropylcellulose) (HPC)) read?
The T/C was 96 % of control.

And the T/C [1]?
Its T/C is 93 % of control.

And the T/C [2]?
Its T/C is 93 % of control.

How did the T/C (dose: 50.0 mg/kg/injection, schedule: Q01DX009 (ip), vehicle: saline) turn out when `CCC/C=C/CC1CCCCC1` was run?
The T/C was 97 % of control.

And the T/C (dose: 100.0 mg/kg/injection, schedule: Q01DX009 (ip), vehicle: saline)?
Its T/C is 97 % of control.

And the T/C (dose: 200.0 mg/kg/injection, schedule: Q01DX009 (ip), vehicle: saline)?
Its T/C is 102 % of control.

Which T/C [1] does the source give for `O=Cc1ccc2c(c1)C(=O)c1ccccc1C2=O` here?
Its T/C is 90 % of control.

And the T/C [2]?
Its T/C is 97 % of control.

And the T/C (dose: 400.0 mg/kg/injection, schedule: Q04DX002 (ip), vehicle: Klucel (hydroxypropylcellulose) (HPC))?
Its T/C is 93 % of control.

What does the source list for `O=C(O)Cc1ccc(NC(=O)NCCCl)cc1`?
T/C [3]: 87 % of control; T/C [4]: 98 % of control; T/C [5]: 93 % of control

How did the T/C [6] turn out when `CSc1ccc(NC(=O)Nc2cccc(C)c2C)cc1` was run?
Its T/C is 92 % of control.

And the T/C [7]?
The T/C was 95 % of control.

What about the T/C [8] of the same compound?
The T/C was 103 % of control.

What does the source list for `CC1=NN(c2ccccc2)C(=O)C1C(=O)c1ccccc1` (stereo unspecified)?
T/C [9]: 92 % of control; T/C [10]: 95 % of control; T/C [11]: 94 % of control

What does the source list for `O=C1NC(=O)C2(CCN(CCCSc3ccc(F)cc3)CC2)C(=O)N1`?
T/C [12]: 98 % of control; T/C [13]: 98 % of control; T/C [14]: 94 % of control

Which T/C [15] does the source give for `Cc1[nH]c(=O)[nH]c(=O)c1N=Nc1ccccc1` here?
The T/C was 95 % of control.

What about the T/C [16] of the same compound?
Its T/C is 98 % of control.

And the T/C [17]?
Its T/C is 95 % of control.

Which T/C (dose: 31.0 mg/kg/injection, schedule: Q01DX Z (ip), vehicle: water) does the source give for `Nc1cc(C(=O)Nc2ccc(S(=O)(=O)O)cc2)ccc1C(=O)Nc1ccc(S(=O)(=O)O)cc1` here?
The T/C was 87 % of control.

And the T/C (dose: 62.5 mg/kg/injection, schedule: Q01DX Z (ip), vehicle: water)?
Its T/C is 100 % of control.

What about the T/C (dose: 125.0 mg/kg/injection, schedule: Q01DX Z (ip), vehicle: water) of the same compound?
The T/C was 97 % of control.

What about the T/C (dose: 250.0 mg/kg/injection, schedule: Q01DX Z (ip), vehicle: water) of the same compound?
Its T/C is 95 % of control.

And the T/C (dose: 500.0 mg/kg/injection, schedule: Q01DX Z (ip), vehicle: water)?
Its T/C is 97 % of control.

With `COC1OC(COC(=O)c2ccccc2)C(OC(=O)N(C)c2ccccc2)C1OC` (stereo unspecified) as the compound, how does the T/C [11] read?
The T/C was 98 % of control.

And the T/C [18]?
Its T/C is 92 % of control.

What about the T/C [19] of the same compound?
The T/C was 95 % of control.

Which T/C [20] does the source give for `O=c1cc(C2CCCCC2)[nH]c(=S)[nH]1` here?
The T/C was 101 % of control.

And the T/C [3]?
Its T/C is 92 % of control.

And the T/C [4]?
The T/C was 86 % of control.

What about the T/C [5] of the same compound?
Its T/C is 90 % of control.

What does the source list for `CN(Cc1cnc2nc(N[Si](C)(C)C)nc(N[Si](C)(C)C)c2n1)c1ccc(C(=O)NC(CCC(=O)O[Si](C)(C)C)C(=O)O[Si](C)(C)C)cc1` (stereo unspecified)?
T/C (dose: 0.62 mg/kg/injection, schedule: Q01DX009 (ip), vehicle: saline): 112 % of control; T/C (dose: 1.25 mg/kg/injection, schedule: Q01DX009 (ip), vehicle: saline with Tween-80): 164 % of control; T/C (dose: 1.25 mg/kg/injection, schedule: Q01DX009 (ip), vehicle: saline): 119 % of control; T/C (dose: 2.5 mg/kg/injection, schedule: Q01DX009 (ip), vehicle: saline with Tween-80): 187 % of control; T/C (dose: 5.0 mg/kg/injection, schedule: Q01DX009 (ip), vehicle: saline with Tween-80): 152 % of control; T/C (dose: 5.0 mg/kg/injection, schedule: Q01DX009 (ip), vehicle: saline): 183 % of control; T/C (dose: 10.0 mg/kg/injection, schedule: Q01DX009 (ip), vehicle: saline): 204 % of control

Which results are given for `N=C(OCCCO)C(=N)OCCCO`?
T/C [11]: 115 % of control; T/C [18]: 102 % of control; T/C [19]: 96 % of control

With `CCCCCCCCC1N(C)CCCN1C` as the compound, how does the T/C (dose: 12.5 mg/kg/injection, schedule: Q01DX009 (ip), vehicle: saline with Tween-80) read?
Its T/C is 98 % of control.

And the T/C [15]?
The T/C was 105 % of control.

What about the T/C [9] of the same compound?
Its T/C is 86 % of control.

What about the T/C [16] of the same compound?
The T/C was 105 % of control.

What about the T/C [10] of the same compound?
Its T/C is 98 % of control and 101 % of control.

And the T/C [17]?
The T/C was 97 % of control and 101 % of control.

With `O=C1CCC(=O)N1c1ccc(I)cc1` as the compound, how does the T/C [20] read?
Its T/C is 96 % of control.

What about the T/C [3] of the same compound?
The T/C was 98 % of control.

And the T/C [4]?
The T/C was 93 % of control.

And the T/C [5]?
The T/C was 107 % of control.

With `Oc1c(-c2ccccc2)c(-c2ccccc2)cc(-c2ccccc2)c1-c1ccccc1` as the compound, how does the T/C [17] read?
The T/C was 102 % of control.

What about the T/C [21] of the same compound?
Its T/C is 94 % of control.

What about the T/C [22] of the same compound?
The T/C was 88 % of control.

Which results are given for `COc1ccc(C(=O)CCCCl)cc1`?
T/C [6]: 102 % of control; T/C [12]: 107 % of control; T/C [7]: 102 % of control; T/C [13]: 96 % of control; T/C [8]: 89 % of control; T/C [14]: 102 % of control

How did the T/C (dose: 25.0 mg/kg/injection, schedule: Q01DX001 (ip), vehicle: water) turn out when `CC(C)COC(=O)C#CC(=O)OCC(C)C` was run?
The T/C was 111 % of control.

And the T/C (dose: 50.0 mg/kg/injection, schedule: Q01DX001 (ip), vehicle: water)?
Its T/C is 106 % of control.

And the T/C (dose: 100.0 mg/kg/injection, schedule: Q01DX001 (ip), vehicle: water)?
Its T/C is 116 % of control.

Which results are given for `Cc1ccc(Cl)cc1NC(=O)OCCOc1ccccc1`?
T/C (dose: 50.0 mg/kg/injection, schedule: Q04DX003 (ip), vehicle: saline with Tween-80): 104 % of control; T/C [17]: 93 % of control; T/C (dose: 100.0 mg/kg/injection, schedule: Q01DX009 (ip), vehicle: saline with Tween-80): 95 % of control; T/C (dose: 100.0 mg/kg/injection, schedule: Q04DX002 (ip), vehicle: saline with Tween-80): 112 % of control and 89 % of control; T/C [11]: 96 % of control and 91 % of control; T/C [21]: 91 % of control; T/C (dose: 200.0 mg/kg/injection, schedule: Q01DX009 (ip), vehicle: saline with Tween-80): 103 % of control and 90 % of control; T/C (dose: 200.0 mg/kg/injection, schedule: Q04DX002 (ip), vehicle: saline with Tween-80): 94 % of control; T/C [18]: 102 % of control; T/C [22]: 98 % of control; T/C (dose: 400.0 mg/kg/injection, schedule: Q01DX009 (ip), vehicle: saline with Tween-80): 95 % of control and 103 % of control; T/C (dose: 400.0 mg/kg/injection, schedule: Q04DX002 (ip), vehicle: saline with Tween-80): 94 % of control and 95 % of control; T/C [19]: 88 % of control and 92 % of control

Which T/C [23] does the source give for `CN(CCc1cnc2nc(N)nc(N)c2n1)c1ccc(C(=O)O)cc1` here?
The T/C was 115 % of control.

`COc1ccc(CC(C)=O)cc1` was tested. Which T/C (dose: 50.0 mg/kg/injection, schedule: Q04DX003 (ip), vehicle: saline) did it give?
The T/C was 96 % of control.

And the T/C (dose: 100.0 mg/kg/injection, schedule: Q04DX003 (ip), vehicle: saline)?
Its T/C is 105 % of control.

Which results are given for `O=[N+]([O-])c1cc([N+](=O)[O-])c(/C=C/c2cccc(OCc3ccccc3)c2)cc1/C=C/c1cccc(OCc2ccccc2)c1`?
T/C [23]: 91 % of control; T/C (dose: 150.0 mg/kg/injection, schedule: Q01DX001 (ip), vehicle: saline): 89 % of control; T/C (dose: 300.0 mg/kg/injection, schedule: Q01DX001 (ip), vehicle: saline): 91 % of control
